Assay results published in patent publication US4275065A, “Modulating the immune response with 2-substituted-3-hydroxythiazolo[2,3-b]b e” (American Home Products Corporation, priority 1980, dated 1981).

Assays:
thymus gland = test: effect on the thymus gland (thymus weight); type: in vivo, BDF1 mice; details: Table 4
Protocol: The effect of the compounds of the invention on the thymus gland is measured. BDF1 mice of 18-20 gms. weight are dosed at 150 mg/kg. with 6-chloro-2-phenylthiazolo[2,3-b]benzothiazolo-3(2H)-one mesoionic didehydro derivative for eight consecutive days. The mice are sacrificed on the ninth day, the thymus glands excised and weighed. The excised thymus glands averaged […]. as compared to […]. for the control group. […] The weight loss is also correlated to dose, and the results are as follows:
Using the same technique, the following compounds of the invention were tested: 6-chloro-2-(p-chlorophenyl)thiazolo[2,3-b]benzothiazol-3(2H)-one mesoionic didehydro derivative (A), 2-phenyl-5,6,7,8-tetrahydrothiazolo[2,3-b]benzothiazol-3(2H)-one mesoionic didehydro derivative (B), 2-phenylthiazolo[2,3-b]-benzothiazol-3(2H)-one mesoionic didehydro derivative (C),6-chloro-2-trifluoroacetylthiazolo[2,3-b]benzothiazol-3(2H)-one mesoionic didehydro derivative (D), 6-chloro-3-hydroxy-2-phenylthiazolo[2,3-b]benzothiazolium bromide (E), 7-ethoxy-3-hydroxy-2-phenylthiazolo[2,3-b]benzothiazolium bromide (F), 3-hydroxy-2-phenylthiazolo[2,3-b]benzothiazolium bromide (G), and 3-hydroxy-2-phenyl-5,6,7,8-tetrahydrothiazolo[2,3-b]benzothiazolium bromide (H).

[1] = system: autoimmune disease (systemic lupus erythematosus); test: autoimmune disease (systemic lupus erythematosus), immunoglobulin determinations, female NZB/W mice; type: in vivo, female NZB/W F1 mice; details: A 100 mg/kg, levamisole 25 mg/kg, i.p. twice weekly
Protocol: (§1) The effect of the compounds of the invention on the development and progress of autoimmune disease (systemic lupus erythematosus) in the New Zealand F1 hydrid mouse (NZB×NZW) is evaluated. NZB/W F1 mice are divided into two groups according to sex. […] IgG, IgM and antinuclear antibody determinations are made on pooled samples of serum obtained by capillary bleedings of the suborbital sinus at approximately monthly intervals. The compounds of the invention are suspended in a solution of physiological saline with 0.16% CMC. All dosing is twice weekly intraperitonially. […] Immunoglobulin values from serum samples are compared with the baseline (pretreatment) for each group.

[2] = system: autoimmune disease (systemic lupus erythematosus); test: autoimmune disease (systemic lupus erythematosus), immunoglobulin determinations, male NZB/W mice; type: in vivo, male NZB/W F1 mice; details: A 100 mg/kg, levamisole 25 mg/kg, i.p. twice weekly
Protocol: as §1

[3] = system: antibody-secreting plaque-forming splenocytes (IgG and IgM); test: Cunningham modification of the Jerne assay (hemolytic plaque technique), IgM and IgG plaques per spleen; type: in vivo, CDF1 (Balb/c × DBA/2) mice; details: Table 2, 200 mg/kg
Protocol: In this example, the compounds of the invention are tested for their effect on antibody-secreting plaque-forming splenocytes (IgG and IgM) in the Cunningham modification of the Jerne assay. This technique is able to detect, in a quantitative manner, antibody producing cells in response to antigen stimulus in the host mouse. For study of […] immune response, sheep erythrocytes (SRBC) are used (as in the present Example), while for humoral immune response, SRBC coupled with pneumococcal polysaccharide is used.
CDF1 (Balb/c × DBA/2) mice are immunized with 0.1 ml. of 10^8 sheep erythrocytes (SRBC) intraperitonially 4-5 days before the assay. The mice are separated into groups, with one group serving as a control and all other groups receiving compounds of the invention. The treated mice are dosed with drug on day one. […] The spleens of the sacrificed mice are excised and washed several times in RPMI 1640 with 10% fetal bovine serum. 100 λ of spleen cells are mixed with a drop of guinea pig complement, four drops of RPMI 1640 and a drop of 25% SRBC in a microtiter plate well and then pipetted into a Cunningham chamber. On day four, for IgM determinations, the chambers are incubated for 30 minutes at 37° C. Antibody, released by the small proportion of active cells, attaches to the surrounding erythrocytes which are lysed by complement leaving a small plaque up to 0.5 mm. in diameter. Since only cells releasing IgM antibody form plaques directly, a "developing" serum must be added to be able to form and view IgG plaques. Thus fifth or sixth day cultured spleen cells are further treated with rabbit antimouse IgG and then incubated for 45 minutes. Both IgM and IgG plaques are counted under a stereomicroscope.
In Table 1 are given the IgM and IgG plaque counts per spleen for mice treated with 6-chloro-2-phenylthiazolo[2,3-b]benzothiazol-3(2H)-one mesoionic didehydro derivative and for the controls:
The assay is repeated using the following compounds of the invention: 2-phenylthiazolo[2,3-b]benzothiazol-3(2H)-one mesoionic didehydro derivative (A), 6-chloro-2-(p-chlorophenyl)-thiazolo[2,3-b]benzothiazol-3(2H)-one mesoionic didehydro derivative (B) and 6-chloro-2-phenylthiazolo[2,3-b]benzothiazol-3(2H)-one mesoionic didehydro derivative (C).

hemolytic anemia = test: autoimmune hemolytic anemia model, serum immunoglobulins; type: in vivo, NZB mice; design: IgM, Baseline: unit not given beside the values; details: for ANA (antinuclear antibody), 1st Reading / IgG, 1st Reading / IgM, 1st Reading: 1st Reading (156 Days); for ANA (antinuclear antibody), 1st Reading / IgG, 1st Reading / IgM, 1st Reading / IgG, % Change / IgM, % Change: 200 mg/kg, four doses over two weeks; for IgG, % Change / IgM, % Change: 142 to 156 Days
Excerpt: NZB/W F1 mice are divided into two groups according to sex. At the initiation of drug treatment, female mice are 78.2 days old with an average weight of 30 g., while male mice are 69.5 days old with an average weight of 40 g. IgG, IgM and antinuclear antibody determinations are made on pooled samples of serum obtained by capillary bleedings of the suborbital sinus at approximately monthly intervals. The compounds of the invention are suspended in a solution of physiological saline with 0.16% CMC. All dosing is twice weekly intraperitonially.
Another autoimmune disease model, hemolytic anemia, is used to further evaluate the compounds of the invention. Thus, NZB mice, having an average age of 142 days and with well advanced hemolytic anemia, are divided into treatment groups and are dosed biweekly over a period of two weeks (four doses total) with the following compounds in the same manner as previously described: 6-chloro-2-(p-chlorophenyl)thiazolo[2,3-b]benzothiazol-3(2H)-one mesoionic didehydro derivative (A), 2-phenyl-5,6,7,8-tetrahydrothiazolo[2,3-b]benzothiazol-3(2H)-one mesoionic didehydro derivative (B), 2-phenylthiazolo[2,3-b]benzothiazol-3(2H)-one mesoionic didehydro derivative (C) and 6-chloro-2-trifluoroacetylthiazolo[2,3-b]benzothiazol-3(2H)-one mesoionic didehydro derivative (D). The immunoglobulin values from serum samples are compared with the baseline (pretreatment) for each group and the results are summarized in Table 10: […]

[4] = system: delayed hypersensitivity reaction; test: guinea pig delayed hypersensitivity assay (PPD); type: in vivo, Male Hartley strain guinea pigs; details: 50 mg/kg orally, read 24 hours after challenge, * = p < 0.05
[5] = Baseline (142 Days), 200 mg/kg group

Oc1c(-c2ccccc2)sc2sc3ccccc3[n+]12 [G]
% Change in weight (thymus gland) (thymus gland; 75 mg/kg): -29% | Avg. weight of thymus gland (thymus gland; 75 mg/kg): 28.0 mg

CCOc1ccc2c(c1)sc1sc(-c3ccccc3)c(O)[n+]12 [F]
% Change in weight (thymus gland) (thymus gland; 150 mg/kg): -16% | Avg. weight of thymus gland (thymus gland; 150 mg/kg): 33.3 mg

c1ccc([C@H]2CN3CCSC3=N2)cc1 [Levamisole, L-(-)-2,3,5,6-tetrahydro-6-phenylimidazo[2,1-b]thiazole, reference compound]
IgG level ([1]; 47 Days): 404 mg./100 ml. | IgM level ([1]; 47 Days): 49 mg./100 ml. | IgG level ([1]; 76 Days): 490 mg./100 ml. | IgM level ([1]; 76 Days): 83 mg./100 ml. | IgG level ([1]; 111 Days): 980 mg./100 ml. | IgM level ([1]; 111 Days): 136 mg./100 ml. | IgG level ([1]; 154 Days): 900 mg./100 ml. | IgM level ([1]; 154 Days): 154 mg./100 ml. | IgG Total Change From Baseline [1]: +440 mg./100 ml. | IgM Total Change From Baseline [1]: +90 mg./100 ml. | IgG level ([1]; Pretreatment): 460 mg./100 ml. | IgM level ([1]; Pretreatment): 64 mg./100 ml. | IgG level ([2]; 47 Days): 560 mg./100 ml. | IgM level ([2]; 47 Days): 68 mg./100 ml. | IgG level ([2]; 76 Days): 710 mg./100 ml. | IgM level ([2]; 76 Days): 140 mg./100 ml. | IgG level ([2]; 111 Days): 710 mg./100 ml. | IgM level ([2]; 111 Days): 128 mg./100 ml. | IgG level ([2]; 154 Days): 910 mg./100 ml. | IgM level ([2]; 154 Days): 142 mg./100 ml. | IgG Total Change From Baseline [2]: +460 mg./100 ml. | IgM Total Change From Baseline [2]: +98.5 mg./100 ml. | IgG level ([2]; Pretreatment): 450 mg./100 ml. | IgM level ([2]; Pretreatment): 43.5 mg./100 ml.

[O-]c1c(-c2ccc(Cl)cc2)sc2sc3ccc(Cl)cc3[n+]12 [B]
IgG, mean (total number of plaques per spleen) ([3]; Day 4): 9,656 plaques per spleen | IgM, mean (total number of plaques per spleen) ([3]; Day 4): 74,025 plaques per spleen | IgG, mean (total number of plaques per spleen) ([3]; Day 5): 49,218 plaques per spleen | IgM, mean (total number of plaques per spleen) ([3]; Day 5): 50,250 plaques per spleen | % Change in weight (thymus gland) (thymus gland; 200 mg/kg): -53% | Avg. weight of thymus gland (thymus gland; 200 mg/kg): 18.6 mg | ANA (antinuclear antibody), 1st Reading (hemolytic anemia): neg. | IgG, 1st Reading (hemolytic anemia): 304 | IgM, 1st Reading (hemolytic anemia): 120 | IgG, % Change (hemolytic anemia): -60% | IgM, % Change (hemolytic anemia): -32% | IgG, Baseline (hemolytic anemia; [5]): 760 | IgM, Baseline (hemolytic anemia; [5]): 176

[O-]c1c(-c2ccccc2)sc2sc3ccccc3[n+]12 [A]
IgG, mean (total number of plaques per spleen) ([3]; Day 4): 107,100 plaques per spleen | IgM, mean (total number of plaques per spleen) ([3]; Day 4): 163,800 plaques per spleen | IgG, mean (total number of plaques per spleen) ([3]; Day 5): 184,590 plaques per spleen | IgM, mean (total number of plaques per spleen) ([3]; Day 5): 97,020 plaques per spleen | toxicity (printed in the thymus weight column) (thymus gland; 200 mg/kg): toxic | ANA (antinuclear antibody), 1st Reading (hemolytic anemia): neg. | IgG, 1st Reading (hemolytic anemia): 570 | IgM, 1st Reading (hemolytic anemia): 176 | IgG, % Change (hemolytic anemia): -15% | IgM, % Change (hemolytic anemia): +21% | ANA (antinuclear antibody), Baseline (hemolytic anemia; [5]): neg. | IgG, Baseline (hemolytic anemia; [5]): 674 | IgM, Baseline (hemolytic anemia; [5]): 146

[O-]c1c(-c2ccccc2)sc2sc3c([n+]12)CCCC3 [Example 11, 2-Phenyl-5,6,7,8-tetrahydrothiazolo[2,3-b]-benzothiazol-3(2H)-one mesoionic dedihydro derivative]
% Change in weight (thymus gland) (thymus gland; 200 mg/kg): -58% | Avg. weight of thymus gland (thymus gland; 200 mg/kg): 16.8 mg | ANA (antinuclear antibody), 1st Reading (hemolytic anemia): neg. | IgG, 1st Reading (hemolytic anemia): 356 | IgM, 1st Reading (hemolytic anemia): 134 | IgG, % Change (hemolytic anemia): -50% | IgM, % Change (hemolytic anemia): -31% | IgG, Baseline (hemolytic anemia; [5]): 710 | IgM, Baseline (hemolytic anemia; [5]): 194

[O-]c1c(-c2ccccc2)sc2sc3ccc(Cl)cc3[n+]12 [C]
IgG, mean (total number of plaques per spleen) ([3]; Day 4): 22,875 plaques per spleen | IgM, mean (total number of plaques per spleen) ([3]; Day 4): 110,643 plaques per spleen | IgG, mean (total number of plaques per spleen) ([3]; Day 5): 117,337 plaques per spleen | IgM, mean (total number of plaques per spleen) ([3]; Day 5): 55,518 plaques per spleen

Oc1c(-c2ccccc2)sc2sc3c([n+]12)CCCC3 [H]
% Change in weight (thymus gland) (thymus gland; 75 mg/kg): +2% | Avg. weight of thymus gland (thymus gland; 75 mg/kg): 40.5 mg

O=C(c1sc2sc3ccc(Cl)cc3[n+]2c1[O-])C(F)(F)F [D]
% Change in weight (thymus gland) (thymus gland; 200 mg/kg): -28% | Avg. weight of thymus gland (thymus gland; 200 mg/kg): 28.4 mg | IgG, 1st Reading (hemolytic anemia): 770 | IgM, 1st Reading (hemolytic anemia): 190 | IgG, % Change (hemolytic anemia): +8% | IgM, % Change (hemolytic anemia): +4% | IgG, Baseline (hemolytic anemia; [5]): 710 | IgM, Baseline (hemolytic anemia; [5]): 182

O=P1(N(CCCl)CCCl)NCCCO1 (stereo not drawn) [Cyclophosphamide, cyclophosphamide, reference compound]
Mean % Inhibition of Paw Edema ([4]; 6 hours after challenge): 58% | Mean % Inhibition of Paw Edema ([4]; 24 hours before challenge): 56%

Oc1c(-c2ccccc2)sc2sc3ccc(Cl)cc3[n+]12 [E]
% Change in weight (thymus gland) (thymus gland; 75 mg/kg): -56% | Avg. weight of thymus gland (thymus gland; 75 mg/kg): 17.5 mg
